Results from patent US8921364B2, “Modulators of calcium release-activated calcium channel” (Rhizen Pharmaceuticals SA, priority 2009, dated 2014).
Where a name gives a salt, the structure may show the parent alone. Read-outs that look alike come from different tables or passages of the source.

Target: CRAC channels (Homo sapiens (Human), UniProt Q96D31)
Assay: In-vitro CRAC channel inhibition assay in Jurkat cells (thapsigargin-induced calcium influx)
Assay type: cell-based
Experimental: Inhibition of CRAC channels was determined following thapsigargin (Sigma, Cat # T9033) induced endoplasmic calcium release in Jurkat cells. […] Cells were centrifuged and re-suspended in equal volumes ° f Ca^2+ and Mg^2+ free Hanks buffer and Fluo-8 NW dye (ABD Bioquest, Inc., Sunnyvale, Calif.) loading solution at 2×10^5 cells/100 μl/well in 96-well black plate. Plate is incubated at 37° C., 5% CO2 for 30 min followed by further 15 min incubation at room temperature. Test compounds (DMSO stocks diluted in Ca^2+ and Mg^2+ free Hanks buffer) at desired concentrations were added to the wells and incubated for […] Thapsigargin (1 μM final concentration) was added to the wells and incubated for 15 min to inhibit the Sarco-endoplasmic reticulum Ca^2+ ATPase pump thereby depleting endoplasmic calcium and raising cytosolic calcium concentrations. Store-operated calcium entry was initiated by adding extracellular Ca^2+ to a final concentration of 1.8 mM. Fluorescence was monitored over […] on a plate reader (BMG Labtech., Germany) with excitation at 485 nm and an emission wavelength at 520 nm. Data were analyzed using GraphPad Prism. IC50 for each compound was determined based on the percent inhibition of thapsigargin-induced calcium influx into cells.

[1] = Jurkat cells, thapsigargin-induced calcium influx

Sequence of CRAC channels (Q96D31 whole entry): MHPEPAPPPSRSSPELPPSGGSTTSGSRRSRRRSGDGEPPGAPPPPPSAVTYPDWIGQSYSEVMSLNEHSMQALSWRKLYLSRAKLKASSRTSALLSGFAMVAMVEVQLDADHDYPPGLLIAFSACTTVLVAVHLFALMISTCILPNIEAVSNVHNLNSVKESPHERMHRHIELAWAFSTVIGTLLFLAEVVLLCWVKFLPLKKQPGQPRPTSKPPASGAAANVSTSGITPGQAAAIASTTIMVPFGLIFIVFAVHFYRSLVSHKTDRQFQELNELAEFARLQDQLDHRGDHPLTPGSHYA

Row | Compound | IC50 [1] [nM] | IC50 [nM] | inhibition at 1 µM (Jurkat cells, 1 uM, thapsigargin-induced calcium influx) [%]
1 | Cc1nnsc1C(=O)Nc1ccc(-n2nc(C3CC3)cc2C2CC2)cc1 [Example 1, N-[4-(3,5-dicyclopropyl-1H-pyrazol-1-yl)phenyl]-4-methyl-1,2,3-thiadiazole-5-carboxamide] | 62.4 | – | –
2 | Cc1ncsc1C(=O)Nc1ccc(-n2nc(C3CC3)cc2C2CC2)cc1 [Example 2, N-[4-(3,5-dicyclopropyl-1H-pyrazol-1-yl)phenyl]-4-methylthiazole-5-carboxamide] | 207 | – | –
3 | Cc1oncc1C(=O)Nc1ccc(-n2nc(C3CC3)cc2C2CC2)cc1 [Example 4, N-[4-(3,5-dicyclopropyl-1H-pyrazol-1-yl)phenyl]-5-methylisoxazole-4-carboxamide] | – | 256 | –
4 | Cc1ccccc1C(=O)Nc1ccc(-n2nc(C3CC3)cc2C2CC2)cc1 [Example 7, N-[4-(3,5-dicyclopropyl-1H-pyrazol-1-yl)phenyl]-2-methylbenzamide] | 36.4 | – | –
5 | O=C(Nc1ccc(-n2nc(C3CC3)cc2C2CC2)cc1)c1ccncc1F [Example 16, N-[4-(3,5-dicyclopropyl-1H-pyrazol-1-yl)phenyl]-3-fluoroisonicotinamide] | 244 | – | –
6 | O=C(Nc1ccc(-n2nc(C3CC3)cc2C2CC2)cc1)c1c(Cl)cncc1Cl [Example 17, 3,5-dichloro-N-(4-(3,5-dicyclopropyl-1H-pyrazol-1-yl)phenyl)isonicotinamide] | 130 | – | –
7 | O=C(Cc1ccccc1)Nc1ccc(-n2nc(C3CC3)cc2C2CC2)cc1 [Example 19, N-[4-(3,5-dicyclopropyl-1H-pyrazol-1-yl)phenyl]-2-phenylacetamide] | 457 | – | –
8 | O=C(Cc1ccccn1)Nc1ccc(-n2nc(C3CC3)cc2C2CC2)cc1 [Example 22, N-[4-(3,5-dicyclopropyl-1H-pyrazol-1-yl)phenyl]-2-(pyridin-2-yl)acetamide hydrochloride] | 968 | – | –
9 | Cc1nnsc1C(=O)Nc1ccc(-n2nc(C3CC3)cc2C2CC2)c(F)c1 [Example 28, N-[4-(3,5-dicyclopropyl-1H-pyrazol-1-yl)-3-fluorophenyl]-4-methyl-1,2,3-thiadiazole-5-carboxamide] | 60.3 | – | –
10 | O=C(Nc1ccc(-n2nc(C3CC3)cc2C2CC2)c(F)c1)c1c(F)cccc1F [Example 33, N-[4-(3,5-dicyclopropyl-1H-pyrazol-1-yl)-3-fluorophenyl]-2,6-difluorobenzamide] | 145 | – | –
11 | O=C(Nc1ccc(-n2nc(C3CC3)cc2C2CC2)c(F)c1)c1ccncc1 [Example 35, N-[4-(3,5-dicyclopropyl-1H-pyrazol-1-yl)-3-fluorophenyl]isonicotinamide hydrochloride] | 185 | – | 100
12 | Cc1ncncc1C(=O)Nc1ccc(-n2nc(C3CC3)cc2C2CC2)c(F)c1 [Example 36, N-[4-(3,5-dicyclopropyl-1H-pyrazol-1-yl)-3-fluorophenyl]-4-methylpyrimidine-5-carboxamide] | 224 | – | –
13 | Cc1nnsc1C(=O)Nc1ccc(-n2nc(C3CC3)c(Cl)c2C2CC2)c(F)c1 [Example 37, N-[4-(4-chloro-3,5-dicyclopropyl-1H-pyrazol-1-yl)-3-fluorophenyl]-4-methyl-1,2,3-thiadiazole-5-carboxamide] | 181 | – | –
14 | Cc1ncsc1C(=O)Nc1ccc(-n2nc(C3CC3)cc2C2CC2)nc1 [Example 39, N-[6-(3,5-dicyclopropyl-1H-pyrazol-1-yl)pyridin-3-yl]-4-methylthiazole-5-carboxamide hydrochloride] | 851 | – | –
15 | O=C(Nc1ccc(-n2nc(C3CC3)cc2C2CC2)nc1)c1c(F)cccc1F [Example 45, N-[6-(3,5-dicyclopropyl-1H-pyrazol-1-yl)pyridin-3-yl]-2,6-difluorobenzamide hydrochloride] | 436 | – | –
16 | Cc1nnsc1C(=O)Nc1ccc(-n2nc(C(F)(F)F)cc2C2CC2)cc1 [Example 52, N-{4-[5-cyclopropyl-3-(trifluoromethyl)-1H-pyrazol-1-yl]phenyl}-4-methyl-1,2,3-thiadiazole-5-carboxamide] | 184 | – | –
